From patent US20250144066A1, “Prevention and Treatment of Parasitic Infections” (priority 2017, published 2025)
Values after ≈ are worked out from the molar mass of the structure shown. “Also recorded” adds a separate entry of the source. Like-named read-outs stand apart in the source and are kept apart here.

Assays:
[1] = system: Adenovirus5 Adenoid75; assay: Adenovirus 5 CPE inhibition, A549 (ADV-0172); format: cell-based; conditions: A549
[2] = system: A549; assay: Toxicity in A549 cells (ADV-0172); format: cell-based
[3] = system: human norovirus (NV, GT1); assay: Human norovirus replicon, RNA Hybridization, HG23, primary (16-21); format: cell-based; conditions: RNA Hybridization (Replicon), NV GT1, HG23
Text: (§1) Secondary testing was done with human norovirus.

[4] = system: HG23; assay: RNA Hybridization toxicity in HG23 cells (16-21); format: cell-based
Text: as §1

[5] = system: mouse norovirus (MNV-1); assay: Mouse norovirus CPE inhibition (NR), RAW264.7 (17-09); format: cell-based
[6] = system: human norovirus (NV, GT1); assay: Human norovirus replicon, qPCR, HG23, secondary (17-14); format: cell-based
Text: as §1

[7] = system: HG23; assay: NR toxicity in HG23 cells (17-14); format: cell-based; conditions: NR (Tox)
Text: as §1

[8] = system: RAW264.7
[9] = system: Zika Virus; assay: Zika virus cytopathic effect (CPE) inhibition, Vero 76, primary screen (Zika-089); format: cell-based; conditions: Zika virus, MR766, Vero 76, primary
[10] = system: Zika Virus; assay: Zika virus CPE inhibition (Neutral Red), Vero 76, secondary (Zika-094); format: cell-based; conditions: Neutral Red (Cytopathic effect), MR766
[11] = system: Zika Virus; assay: Zika virus yield reduction (VYR), Vero 76, secondary (Zika-094); format: cell-based; conditions: Visual (Virus yield reduction), MR766
[12] = system: Zika Virus; assay: Zika virus CPE inhibition (Neutral Red), Huh7, secondary (Zika-094); format: cell-based; conditions: Huh-7, Neutral Red (Cytopathic effect), MR766, Huh7, secondary, read-out: EC50
[13] = system: Zika Virus; assay: Zika virus yield reduction (VYR), Huh7, secondary (Zika-094); format: cell-based; conditions: Huh-7, Visual (Virus yield reduction), MR766
[14] = Toxicity in Vero 76 cells, primary screen (Zika-089); conditions: monkey, Vero 76 cells
[15] = Neutral Red toxicity in Huh7 cells, secondary (Zika-094); conditions: human
[16] = Neutral Red toxicity in Vero 76 cells, secondary (Zika-094); conditions: monkey, Vero 76 cells
[17] = Cell Titer-Glo toxicity in C-33A cells (HPV16-15); conditions: human, C-33A cells
[18] = system: influenza A/California/04/2009 (H1N1pdm); assay: Mycophenolate mofetil in influenza-infected mice on standard or low nucleotide diet (Example 19); format: in vivo, C57BL/6 mice; conditions: for Mean Day of Death (MDD) vs placebo: standard diet
[19] = system: Zika Virus; assay: Zika prevention, CPE inhibition (Neutral Red), Huh7, 4 h pre-incubation (Zika-138); format: cell-based; conditions: Neutral Red (Cytopathic effect), pre-incubated 4 hours prior to infection
[20] = system: Zika Virus; assay: Zika prevention, virus yield reduction (VYR), Huh7, 4 h pre-incubation (Zika-138); format: cell-based; conditions: Visual (Virus yield reduction); Huh7; pre-incubated 4 hours prior to infection
Method: (§2) An experiment was carried out as specified in Example 8. In a Zika Prevention Trial, MPA was pre-incubated with human cells 4 hours or 24 hours before Zika virus infection.

[21] = system: Zika Virus; assay: Zika prevention, CPE inhibition (Neutral Red), Huh7, 24 h pre-incubation (Zika-138); format: cell-based; conditions: Neutral Red (Cytopathic effect), pre-incubated 24 hours prior to infection
[22] = system: Zika Virus; assay: Zika prevention, virus yield reduction (VYR), Huh7, 24 h pre-incubation (Zika-138); format: cell-based; conditions: Visual (Virus yield reduction); Huh7; pre-incubated 24 hours prior to infection
Method: as §2

[23] = system: Zika Virus; assay: Zika prevention, CPE inhibition (Neutral Red), Vero 76, 4 h pre-incubation (Zika-138); format: cell-based; conditions: Neutral Red (Cytopathic effect), pre-incubated 4 hours prior to infection
[24] = system: Zika Virus; assay: Zika prevention, virus yield reduction (VYR), Vero 76, 4 h pre-incubation (Zika-138); format: cell-based; conditions: Visual (Virus yield reduction), pre-incubated 4 hours prior to infection
[25] = system: Zika Virus; assay: Zika prevention, CPE inhibition (Neutral Red), Vero 76, 24 h pre-incubation (Zika-138); format: cell-based; conditions: Neutral Red (Cytopathic effect), pre-incubated 24 hours prior to infection
[26] = system: Zika Virus; assay: Zika prevention, virus yield reduction (VYR), Vero 76, 24 h pre-incubation (Zika-138); format: cell-based; conditions: Visual (Virus yield reduction), pre-incubated 24 hours prior to infection
[27] = system: Vero 76
[28] = system: Vero 76; remark: listed apart in the source
[29] = system: influenza A/California/04/2009 (H1N1pdm); assay: Oseltamivir with control or low guanosine diet in influenza-infected mice (Example 15); format: in vivo, C57BL/6 mice; conditions: oseltamivir IP, BID for five days from four hours pre-infection
[30] = system: Influenza A virus H1N1 California/07/2009; assay: microbe, parasite or virus in culture; format: cell-based
[31] = system: Respiratory syncytial virus A2; assay: microbe, parasite or virus in culture; format: cell-based
[32] = system: Lassa fever virus Josiah; assay: organism not typed; format: cell-based; conditions: Vero
[33] = system: Rift Valley fever virus MP-12; assay: microbe, parasite or virus in culture; format: cell-based
[34] = in vitro; conditions: dog
[35] = in vitro; conditions: African green monkey
[36] = in vitro; conditions: African green monkey; remark: listed apart in the source

`Nc1ccn([C@H]2CC[C@@H](CO)O2)c(=O)n1` [2,3-Dideoxycytidine] gave an EC50 ([1]; Neutral Red (Cytopathic effect)) of 3.2 µg/mL (≈ 15.2 µM), an EC50 ([1]; Visual (Cytopathic effect)) of 3.2 µg/mL (≈ 15.2 µM) and a CC50 ([2]; Neutral Red (Toxicity)) greater than 100 µg/mL. For the same molecule, the CC50 ([2]; Visual (Toxicity)) was greater than 100 µg/mL.
Work on `C[C@@]1(O)[C@H](O)[C@@H](CO)O[C@H]1n1ccc(N)nc1=O` [2′C-methyl cytidine] yielded an EC50 ([3]; read-out: EC50) of 6.6 µM, an EC90 ([3]; read-out: EC90) of 17 µM and a CC50 [4] greater than 300 µM. It also gave an EC50 [5] of 1 µM, an EC90 [5] of 3.2 µM and an EC50 [6] of 6 µM. It also gave an EC90 [6] of 18 µM, a CC50 [7] greater than 300 µM and a CC50 [8] of 51 µM.
Work on `O=c1cnn([C@@H]2O[C@H](CO)[C@@H](O)[C@H]2O)c(=O)[nH]1` [6-Azauridine] yielded an EC50 ([9]; Vero 76, Neutral Red (Cytopathic effect)) of 0.35 µg/mL (≈ 1.43 µM), an EC50 ([9]; Vero 76, Visual (Cytopathic effect)) of 0.32 µg/mL (≈ 1.31 µM) and an EC50 [10] of 0.37 µg/mL (≈ 1.51 µM). It also gave an EC90 [11] of 1.3 µg/mL (≈ 5.3 µM), an EC50 [12] of 1.2 µg/mL (≈ 4.89 µM) and an EC90 [13] of 27.4 µg/mL (≈ 112 µM). It also gave a CC50 ([14]; CC50, Neutral Red (Toxicity)) of 83.3 µg/mL (≈ 340 µM), a CC50 ([14]; CC50, Visual (Toxicity)) greater than 100 µg/mL and a CC50 [15] greater than 100 µg/mL. It also gave a CC50 [16] of 9.9 µg/mL (≈ 40.4 µM).
Molecule `Nc1nc2c(ncn2CCOCP(=O)(O)O)c(=O)[nH]1` [9-[2-(phosphonomethoxy)ethyl]guanine] has a CC50 [17] of 141 µM.
For `COc1c(C)c2c(c(O)c1C/C=C(\C)CCC(=O)OCCN1CCOCC1)C(=O)OC2` [MMF, 2-morpholinoethyl ester of mycophenolic acid], the “protection (survival) vs placebo” value ([18]; low nucleotide diet, MMF 4 mg/kg/day bid for 6 days beginning 4 h pre-infection) was “significant (P<0.05) protection; also recorded: improved survival outcome”, the “Mean Day of Death (MDD) vs placebo” value ([18]; MMF 4 mg/kg/day PO bid for 6 days) was “significantly (P<0.05) increased” and the “Mean Day of Death (MDD) vs placebo” value ([18]; MMF 40 mg/kg/day PO bid for 6 days) was “significantly (P<0.05) increased”.
Work on `C#C[C@@]1(O)[C@H](O)[C@@H](CO)O[C@H]1n1ccc2c(N)ncnc21` [NITD008] yielded an EC50 [19] of 1.1 µg/mL (≈ 3.79 µM), an EC90 [20] of 0.61 µg/mL (≈ 2.1 µM) and an EC50 [21] of 0.77 µg/mL (≈ 2.65 µM). For the same molecule, the EC90 [22] was 1.0 µg/mL (≈ 3.44 µM), the EC50 [23] was 8.3 µg/mL (≈ 28.6 µM) and the EC90 [24] was 7.81 µg/mL (≈ 26.9 µM). It also gave an EC50 [25] of 5.1 µg/mL (≈ 17.6 µM), an EC90 [26] of 31.62 µg/mL (≈ 109 µM) and a CC50 [27] greater than 100 µg/mL. The CC50 [28] was greater than 100 µg/mL.
In the case of `CCOC(=O)C1=C[C@@H](OC(CC)CC)[C@H](NC(C)=O)[C@@H](N)C1` [Oseltamivir, oseltamivir], the “survival at 21 days post-infection” value ([29]; Group A, control diet (Harlan mouse lab diet)) is reported as 40% and the “survival at 21 days post-infection” value ([29]; Group B, low guanosine diet (Purina Mills #5755)) is reported as 100%.
In the case of `NC(=O)c1ncn([C@@H]2O[C@H](CO)[C@@H](O)[C@H]2O)n1` [Ribavirin], the EC50 [30] is reported as 4.1 µM, the EC50 ([30]; Influenza A virus, H1N1, MDCK) is reported as 3.7 µM and the EC50 [31] is reported as 12 µg/mL (≈ 49.1 µM). For the same molecule, the EC50 ([31]; human respiratory syncytial virus, MA104) was 7.6 µg/mL (≈ 31.1 µM), the EC50 [32] was 32 µM and the EC50 [33] was 12 µg/mL (≈ 49.1 µM). For the same molecule, the EC50 ([33]; Rift Valley fever virus, Vero 76) was 11 µg/mL (≈ 45 µM), the CC50 [34] was greater than 320 µM and the CC50 [35] was greater than 100 µM. It also gave a CC50 [36] greater than 1000 µg/mL.
